According to ChEMBL document CHEMBL3526033, “Identification of human liver cytochrome P450 enzymes involved in the metabolism of SCH 530348 (Vorapaxar), a potent oral thrombin protease-activated receptor 1 antagonist” (Drug Metab Dispos, 2011):

Assays:
Cytochrome P450 4F12 = Cytochrome P450 4F12 (Homo sapiens, UniProt Q9HCS2); assay: Activity of human recombinant CYP4F12 assessed as enzyme-mediated drug metabolism treated with 25 uM vorapaxar after 120 mins by LC-MS/MS analysis in presence of NADPH; format: ADME; conditions: 2 h
Sequence of Cytochrome P450 4F12 (Q9HCS2 whole entry): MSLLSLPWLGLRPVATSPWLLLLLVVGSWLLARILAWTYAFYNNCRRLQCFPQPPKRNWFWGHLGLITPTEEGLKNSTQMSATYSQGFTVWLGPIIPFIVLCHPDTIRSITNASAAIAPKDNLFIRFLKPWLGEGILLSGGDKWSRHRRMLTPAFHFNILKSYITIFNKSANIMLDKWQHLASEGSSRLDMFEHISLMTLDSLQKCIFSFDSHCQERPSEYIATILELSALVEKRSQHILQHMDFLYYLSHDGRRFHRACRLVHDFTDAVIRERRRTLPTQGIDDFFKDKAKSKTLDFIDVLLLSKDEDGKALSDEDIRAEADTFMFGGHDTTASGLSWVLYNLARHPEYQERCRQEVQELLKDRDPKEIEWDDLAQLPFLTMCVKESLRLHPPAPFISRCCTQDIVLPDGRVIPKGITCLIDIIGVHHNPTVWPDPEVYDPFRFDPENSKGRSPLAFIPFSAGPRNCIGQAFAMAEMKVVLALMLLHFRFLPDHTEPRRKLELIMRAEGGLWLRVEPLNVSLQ

Cytochrome P450 2E1 [1] = biological target: T1, Cytochrome P450 2E1 (Homo sapiens, UniProt P05181); assay: Activity of human recombinant CYP2E1 assessed as enzyme-mediated drug metabolism treated with 25 uM vorapaxar after 120 mins by LC-MS/MS analysis in presence of NADPH; format: ADME; conditions: 2 h
T1 sequence (P05181 whole entry): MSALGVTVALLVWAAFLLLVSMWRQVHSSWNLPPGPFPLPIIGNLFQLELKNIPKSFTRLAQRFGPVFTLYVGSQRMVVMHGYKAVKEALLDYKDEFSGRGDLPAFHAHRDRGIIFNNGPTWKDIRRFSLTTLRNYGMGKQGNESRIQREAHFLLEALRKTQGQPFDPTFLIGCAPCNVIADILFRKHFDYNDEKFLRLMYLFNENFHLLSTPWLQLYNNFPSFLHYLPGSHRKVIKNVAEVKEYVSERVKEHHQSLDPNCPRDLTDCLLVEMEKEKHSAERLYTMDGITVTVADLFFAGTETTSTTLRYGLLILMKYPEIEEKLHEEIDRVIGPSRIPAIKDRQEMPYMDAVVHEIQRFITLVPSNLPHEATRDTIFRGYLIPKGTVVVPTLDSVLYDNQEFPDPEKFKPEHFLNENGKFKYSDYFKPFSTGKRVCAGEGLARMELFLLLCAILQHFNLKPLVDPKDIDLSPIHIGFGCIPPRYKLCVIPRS

Cytochrome P450 2C19 [2] = biological target: T2, Cytochrome P450 2C19 (Homo sapiens, UniProt P33261); assay: Activity of human recombinant CYP2C19 assessed as enzyme-mediated drug metabolism treated with 25 uM vorapaxar after 120 mins by LC-MS/MS analysis in presence of NADPH; format: ADME; conditions: 2 h
T2 sequence (P33261 whole entry): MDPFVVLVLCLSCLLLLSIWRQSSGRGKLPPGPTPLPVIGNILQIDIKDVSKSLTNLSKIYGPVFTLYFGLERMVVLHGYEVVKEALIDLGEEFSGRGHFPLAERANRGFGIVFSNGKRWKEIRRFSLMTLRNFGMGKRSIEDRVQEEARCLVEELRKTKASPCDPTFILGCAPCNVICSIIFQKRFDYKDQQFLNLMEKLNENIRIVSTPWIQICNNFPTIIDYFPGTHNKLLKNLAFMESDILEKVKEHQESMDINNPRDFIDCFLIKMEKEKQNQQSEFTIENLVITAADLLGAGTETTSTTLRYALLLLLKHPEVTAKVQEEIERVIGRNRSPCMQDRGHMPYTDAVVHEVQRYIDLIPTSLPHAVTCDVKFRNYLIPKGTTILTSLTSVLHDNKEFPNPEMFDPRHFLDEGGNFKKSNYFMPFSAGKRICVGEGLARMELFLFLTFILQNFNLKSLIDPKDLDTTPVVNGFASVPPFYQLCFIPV

Cytochrome P450 2A6 = Cytochrome P450 2A6 (Homo sapiens, UniProt P11509); assay: Activity of human recombinant CYP2A6 assessed as enzyme-mediated drug metabolism treated with 25 uM vorapaxar after 120 mins by LC-MS/MS analysis in presence of NADPH; format: ADME; conditions: 2 h
Sequence of Cytochrome P450 2A6 (P11509 whole entry): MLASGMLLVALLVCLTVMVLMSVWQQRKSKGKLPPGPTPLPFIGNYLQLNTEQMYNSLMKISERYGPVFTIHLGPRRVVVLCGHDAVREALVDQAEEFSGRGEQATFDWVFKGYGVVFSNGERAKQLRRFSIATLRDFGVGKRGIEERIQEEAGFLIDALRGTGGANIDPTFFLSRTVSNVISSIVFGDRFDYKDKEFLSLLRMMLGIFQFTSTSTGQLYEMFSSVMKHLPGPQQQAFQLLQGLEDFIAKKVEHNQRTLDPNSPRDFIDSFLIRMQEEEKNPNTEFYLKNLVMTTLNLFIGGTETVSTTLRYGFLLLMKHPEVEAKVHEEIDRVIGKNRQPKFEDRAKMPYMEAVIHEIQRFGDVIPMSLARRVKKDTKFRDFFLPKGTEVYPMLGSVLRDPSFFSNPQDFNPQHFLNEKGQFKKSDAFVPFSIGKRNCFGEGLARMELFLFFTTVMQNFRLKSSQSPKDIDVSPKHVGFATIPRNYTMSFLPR

[3] = Drug level in human lung microsomes treated with 25 uM vorapaxar after 120 mins by LC-MS/MS analysis in presence of NADPH; format: ADME, microsome; conditions: 2 h
Cytochrome P450 1A1 = biological target: T3, Cytochrome P450 1A1 (Homo sapiens, UniProt P04798); assay: Activity of human recombinant CYP1A1 assessed as enzyme-mediated drug metabolism treated with 25 uM vorapaxar after 120 mins by LC-MS/MS analysis in presence of NADPH; format: ADME; conditions: 2 h
T3 sequence (P04798 whole entry): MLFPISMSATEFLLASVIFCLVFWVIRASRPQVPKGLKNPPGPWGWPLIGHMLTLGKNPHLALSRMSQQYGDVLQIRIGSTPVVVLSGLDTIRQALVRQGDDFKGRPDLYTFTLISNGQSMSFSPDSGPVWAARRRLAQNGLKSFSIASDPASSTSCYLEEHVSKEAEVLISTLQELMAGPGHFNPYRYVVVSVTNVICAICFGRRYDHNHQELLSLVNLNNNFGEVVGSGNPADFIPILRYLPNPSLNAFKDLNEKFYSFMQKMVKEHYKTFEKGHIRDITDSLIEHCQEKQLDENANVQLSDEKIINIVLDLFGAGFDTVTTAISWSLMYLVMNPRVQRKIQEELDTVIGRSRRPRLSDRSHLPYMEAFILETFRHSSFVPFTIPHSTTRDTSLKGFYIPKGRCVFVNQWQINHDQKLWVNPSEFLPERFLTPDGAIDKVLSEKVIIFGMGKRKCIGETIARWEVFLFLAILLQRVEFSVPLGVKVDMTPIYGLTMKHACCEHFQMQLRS

CYP3A4 = CYP3A4 (Homo sapiens, UniProt P08684); assay: Activity of human recombinant CYP3A4 assessed as enzyme-mediated drug metabolism at 10 uM after 120 mins by LC-MS/MS analysis in presence of NADPH; format: ADME; conditions: read-out: Compound recovery
Sequence of CYP3A4 (P08684 whole entry): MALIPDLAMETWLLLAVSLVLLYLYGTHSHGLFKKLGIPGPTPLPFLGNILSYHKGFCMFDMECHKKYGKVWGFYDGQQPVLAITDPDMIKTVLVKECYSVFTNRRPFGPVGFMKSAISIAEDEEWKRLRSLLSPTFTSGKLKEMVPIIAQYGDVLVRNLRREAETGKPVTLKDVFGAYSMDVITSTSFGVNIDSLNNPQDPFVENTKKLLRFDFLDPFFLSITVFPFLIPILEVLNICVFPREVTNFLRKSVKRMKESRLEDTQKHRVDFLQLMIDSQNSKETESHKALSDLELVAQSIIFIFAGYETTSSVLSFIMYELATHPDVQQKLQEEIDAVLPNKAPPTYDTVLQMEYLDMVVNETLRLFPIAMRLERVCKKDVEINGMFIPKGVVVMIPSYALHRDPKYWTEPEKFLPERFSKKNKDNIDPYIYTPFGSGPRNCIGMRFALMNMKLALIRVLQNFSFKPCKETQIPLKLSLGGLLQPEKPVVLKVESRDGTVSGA

[4] = Drug metabolism in insect microsomes at 10 uM after 120 mins by LC-MS/MS analysis in presence of NADPH; format: ADME, Microsome; conditions: read-out: Compound recovery
Liver microsome [5] = assay: Drug metabolism in human liver microsomes overexpressing CYP3A4 assessed as (3R,3aS,4S,4aR,7R,8aR,9aR)-7-amino-4-((E)-2-(5-(3-fluorophenyl)pyridin-2-yl)vinyl)-3-methyldecahydronaphtho[2,3-c]furan-1(3H)-one formation at 25 uM after 120 mins by LC-MS/MS analysis in presence of ticlopidine; format: ADME; conditions: 2 h
Liver microsome [6] = assay: Drug metabolism in human liver microsomes assessed as (3R,3aS,4S,4aR,7R,8aR,9aR)-7-amino-4-((E)-2-(5-(3-fluorophenyl)pyridin-2-yl)vinyl)-3-methyldecahydronaphtho[2,3-c]furan-1(3H)-one formation at 10 to 25 uM after 120 mins by LC-MS/MS analysis in presence of quinidine; format: ADME; conditions: 2 h
Liver microsome [7] = assay: Drug metabolism in human liver microsomes assessed as 2-hydroxyethyl (1R,3aR,4aR,6R,8aR,9S,9aS)-9-((E)-2-(5-(3-fluorophenyl)pyridin-2-yl)vinyl)-1-methyl-3-oxododecahydronaphtho[2,3-c]furan-6-ylcarbamate formation at 25 uM after 120 mins by LC-MS/MS analysis; format: ADME; conditions: 2 h
Liver microsome [8] = assay: Drug metabolism in human liver microsomes assessed as (3R,3aS,4S,4aR,7R,8aR,9aR)-7-amino-4-((E)-2-(5-(3-fluorophenyl)pyridin-2-yl)vinyl)-3-methyldecahydronaphtho[2,3-c]furan-1(3H)-one formation after 120 mins by LC-MS/MS analysis; format: ADME; conditions: 2 h
Cytochrome P450 2C18 = Cytochrome P450 2C18 (Homo sapiens, UniProt P33260); assay: Activity of human recombinant CYP2C18 assessed as enzyme-mediated 2-hydroxyethyl (1R,3aR,4aR,6R,8aR,9S,9aS)-9-((E)-2-(5-(3-fluorophenyl)pyridin-2-yl)vinyl)-1-methyl-3-oxododecahydronaphtho[2,3-c]furan-6-ylcarbamate formation at 25 uM after 120 mins by LC-MS/MS analysis in presence of NADPH; format: ADME; conditions: 2 h
Sequence of Cytochrome P450 2C18 (P33260 whole entry): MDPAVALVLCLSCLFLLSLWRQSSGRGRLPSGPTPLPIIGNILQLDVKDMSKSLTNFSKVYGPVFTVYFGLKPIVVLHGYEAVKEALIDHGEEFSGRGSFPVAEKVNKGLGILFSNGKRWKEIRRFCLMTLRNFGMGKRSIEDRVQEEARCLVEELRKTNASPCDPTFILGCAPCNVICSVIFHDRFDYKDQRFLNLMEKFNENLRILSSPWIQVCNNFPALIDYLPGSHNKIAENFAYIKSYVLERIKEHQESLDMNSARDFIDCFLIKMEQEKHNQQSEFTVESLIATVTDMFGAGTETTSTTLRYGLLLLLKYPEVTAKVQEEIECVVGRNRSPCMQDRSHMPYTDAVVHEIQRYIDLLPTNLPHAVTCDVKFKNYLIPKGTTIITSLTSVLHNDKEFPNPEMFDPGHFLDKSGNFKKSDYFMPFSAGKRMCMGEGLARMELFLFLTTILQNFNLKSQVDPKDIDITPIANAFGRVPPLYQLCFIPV

Cytochrome P450 2E1 [9] = biological target: T1, Cytochrome P450 2E1; assay: Activity of human recombinant CYP2E1 assessed as enzyme-mediated 2-hydroxyethyl (1R,3aR,4aR,6R,8aR,9S,9aS)-9-((E)-2-(5-(3-fluorophenyl)pyridin-2-yl)vinyl)-1-methyl-3-oxododecahydronaphtho[2,3-c]furan-6-ylcarbamate formation at 25 uM after 120 mins by LC-MS/MS analysis in presence of NADPH; format: ADME; conditions: 2 h
Cytochrome P450 3A4 = Cytochrome P450 3A4 (Homo sapiens, UniProt P08684); assay: Activity of human recombinant CYP3A4 assessed as enzyme-mediated 2-hydroxyethyl (1R,3aR,4aR,6R,8aR,9S,9aS)-9-((E)-2-(5-(3-fluorophenyl)pyridin-2-yl)vinyl)-1-methyl-3-oxododecahydronaphtho[2,3-c]furan-6-ylcarbamate formation at 25 uM after 120 mins by LC-MS/MS analysis in presence of NADPH; format: ADME; conditions: 2 h
Sequence of Cytochrome P450 3A4 (P08684 whole entry): as the sequence (P08684 whole entry) above

Cytochrome P450 2C19 [10] = biological target: T2, Cytochrome P450 2C19; assay: Activity of human recombinant CYP2C19 assessed as enzyme-mediated (3R,3aS,4S,4aR,7R,8aR,9aR)-7-amino-4-((E)-2-(5-(3-fluorophenyl)pyridin-2-yl)vinyl)-3-methyldecahydronaphtho[2,3-c]furan-1(3H)-one formation at 25 uM after 120 mins by LC-MS/MS analysis in presence of NADPH; format: ADME; conditions: 2 h

What does the source list for `C[C@H]1OC(=O)[C@@H]2C[C@@H]3C[C@H](NC(=O)OCCO)CC[C@H]3[C@H](/C=C/c3ccc(-c4cccc(F)c4)cn3)[C@H]12`?
Drug metabolism (Cytochrome P450 4F12): metabolite_detected; Drug metabolism (Cytochrome P450 2E1 [1]): metabolite_detected; Drug metabolism (Cytochrome P450 2C19 [2]): metabolite_detected; Drug metabolism (Cytochrome P450 2A6): metabolite_detected; Drug metabolism [3]: metabolite_detected; Drug metabolism (Cytochrome P450 1A1): metabolite_detected

With `CCOC(=O)N[C@@H]1CC[C@@H]2[C@@H](C1)C[C@H]1C(=O)O[C@H](C)[C@H]1[C@H]2/C=C/c1ccc(-c2cccc(F)c2)cn1` [VORAPAXAR] as the molecule, how does the remaining at 2 h, 10 µM (CYP3A4) read?
Its remaining at 2 h, 10 µM is 72.5%.

And the remaining at 2 h, 10 µM [4]?
Its remaining at 2 h, 10 µM is 98.7%.

What about the Drug metabolism (Liver microsome [5]) of the same molecule?
Its Drug metabolism is “metabolite_not_detected”.

What about the Drug metabolism (Liver microsome [6]) of the same molecule?
The Drug metabolism was “metabolite_detected”.

What about the Drug metabolism (Liver microsome [7]) of the same molecule?
The Drug metabolism was “metabolite_not_detected”.

What does the source list for `CCOC(=O)N[C@@H]1CC[C@@H]2[C@@H](C1)C[C@H]1C(=O)O[C@H](C)[C@H]1[C@H]2/C=[14CH]/c1ccc(-c2cccc(F)c2)cn1`?
Km (Liver microsome [8]): 23.5 µM; Drug metabolism (Cytochrome P450 2C18): metabolite_detected; Drug metabolism (Cytochrome P450 2E1 [9]): metabolite_detected; Drug metabolism (Cytochrome P450 3A4): metabolite_detected; Drug metabolism (Cytochrome P450 2C19 [10]): metabolite_detected
